Experimental data from patent US5674909A, “Derivatives of 2-amino-1,2,3,4-tetrahydronaphthalene active on the cardiovascular system” (Zambon Group, priority 1994, dated 1997).

Columns and labels:
D1 receptor = D1 receptor (Rattus norvegicus, UniProt P18901); test: biochemical; assay type: binding, rat (Sprague-Dawley); settings: [3H]-SCH23390 0.2 nM, rat striated membranes, pH 7.4, 37° C., 20 minutes; read-out: Affinity [K1 (nM)] towards D1 receptor
Protocol: (§1) The tissue were homogenized in 50 mM Tris/HCl buffer at pH 7.4 (1:100 w/v).
(§2) The homogenate was centrifuged and the pellet resuspended, recentrifuged and resuspended again in 50 mM Tris/HCl buffer at pH 7.4 containing 120 mM NaCl, 5 mM KCl, 2 mM CaCl2 and 1 mM MgCl2.
The mixture was incubated with different concentrations of the tested compounds at 37° C. for 20 minutes, filtered under vacuum through Whatman GF/C filters and then washed 4 times with 5 ml of 50 mM Tris/HCl buffer (pH 7.4) cooled with ice.

D2 receptor = D2 receptor (Rattus norvegicus, UniProt P61169); test: biochemical; assay type: binding, rat (Sprague-Dawley); settings: [3H]-domperidone 0.3 nM, rat striated membranes, 0.01% BSA, 37° C., 30 minutes; read-out: Affinity [K1 (nM)] towards D2 receptor
D2 receptor, sequence (P61169 whole entry): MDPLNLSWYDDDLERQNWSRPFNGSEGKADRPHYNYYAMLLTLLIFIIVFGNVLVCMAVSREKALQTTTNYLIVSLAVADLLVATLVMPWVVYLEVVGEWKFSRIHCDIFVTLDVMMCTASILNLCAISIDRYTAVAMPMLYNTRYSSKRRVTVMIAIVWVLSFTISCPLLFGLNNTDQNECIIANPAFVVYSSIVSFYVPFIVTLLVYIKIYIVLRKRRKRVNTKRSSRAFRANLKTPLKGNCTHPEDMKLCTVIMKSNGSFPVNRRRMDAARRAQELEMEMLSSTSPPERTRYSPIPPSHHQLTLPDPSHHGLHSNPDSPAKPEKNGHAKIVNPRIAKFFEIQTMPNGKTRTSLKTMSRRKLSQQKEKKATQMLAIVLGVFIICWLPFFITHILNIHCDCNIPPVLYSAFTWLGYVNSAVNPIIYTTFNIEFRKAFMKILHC
Protocol: as §1, §2
Furthermore, bovine serum albumine (BSA) (0.01%) was added.
The mixture was incubated at 37° C. for 30 minutes for each concentration of tested compounds.

[1] = test system: D1 -like (Rabbit Splenic Artery); test: D1-like activity in the Rabbit Splenic Artery (RSA) test; settings: agonist activity at the peak of the effect; contracted with U46619 0.1 μM
Protocol: Arterial rings were prepared according to Semeraro et al., Naunyn. Schmied. Arch. Pharmacol., 1990, 342, 539.
The arterial preparations were contracted with U46619 (9,11-di-deoxy-11α,9α-epoxy-methanoprostaglandin F2α) at the submaximal concentration 0.1 μM.
(§3) The tested compounds were cumulatively administered.
(§4) Ref. A was used as reference substance.
(§5) Agonist activity evaluated at the peak of the effect and expressed as potency ratio (EC50 of Ref. A/EC50 of tested compound) is reported in table 2.

[2] = test system: spontaneously hypertensive rats; test: In vivo antihypertensive activity, i.v., spontaneously hypertensive rats; parameters: species or system rat (spontaneously hypertensive, Charles River); settings: 30 nmol/kg i.v. bolus; recorded over 4 hours; basal MBP 190-200 mmHg; Ref. A n = 6, Compound 22 n = 7
Protocol: Male spontaneously hypertensive rats (Charles River) more than 14 weeks old were used.
Catheters were inserted into the right carotid artery and into the left giugular vein under barbituric anesthesia.
The animals were allowed to recover overnight.
The tested compounds were administered into the left giugular vein by bolus injection.
Control animals were injected with an equal volume of vehicle. The induced effect was continuously recorded over a period of 4 hours.
Basal values of Mean Blood Pressure (MBP) were in the range of 190-200 mmHg.
The antihypertensive activity of compound 22 expressed as MBP reduction compared with the antihypertensive activity of Ref. A is reported in the following table.

[3] = biological target: T1, D2 -like (Rabbit Ear Artery) (Oryctolagus cuniculus, UniProt G1T1Q0); test: D2-like activity in the Rabbit Ear Artery (REA) test; parameters: species or system New Zealand rabbit; settings: agonist activity at the peak of the effect; electrically stimulated
T1 construct: the central ear artery was dissected into 3 mm long rings; from tissue; host or cells: rabbit central ear artery rings (male New Zealand rabbits), electrically stimulated
T1 sequence (G1T1Q0 1-443): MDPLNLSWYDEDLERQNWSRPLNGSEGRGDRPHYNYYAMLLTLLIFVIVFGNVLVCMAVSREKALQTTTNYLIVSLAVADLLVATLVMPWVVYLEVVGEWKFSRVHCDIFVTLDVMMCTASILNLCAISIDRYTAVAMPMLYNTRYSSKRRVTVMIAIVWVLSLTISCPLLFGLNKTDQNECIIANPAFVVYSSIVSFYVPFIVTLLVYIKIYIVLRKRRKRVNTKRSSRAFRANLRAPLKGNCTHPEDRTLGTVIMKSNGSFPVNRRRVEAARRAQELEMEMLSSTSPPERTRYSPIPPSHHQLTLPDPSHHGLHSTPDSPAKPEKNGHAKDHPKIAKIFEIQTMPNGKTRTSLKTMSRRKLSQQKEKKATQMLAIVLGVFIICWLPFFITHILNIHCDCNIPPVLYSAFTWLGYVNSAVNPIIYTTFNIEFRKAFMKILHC
Protocol: Arterial rings were prepared according to the method described by Steinsland et al., Science, 1978, 443, 199, modified as follows. Male New Zealand rabbits weighing 2.5-3 Kg were sacrificed by intravenous injection of an excess of pentobarbital sodium and exsanguinated. The two ears were taken away and the central ear artery was dissected into 3 mm long rings.
These preparations were set up in a 25 ml organ bath containing Krebs solution (mM/l): NaCl 118, KCl 4.7, CaCl2 2.5, MgSO4 1.2, NaHCO3 25, KH2 PO4 1.2, glucose 11.1, equilibrated with 95% 02 -5% CO2 and maintained at 35°±1° C.
Krebs solution was medicated with EDTA (10 μM) to prevent cathecolamine oxydation, desipramine (0.1 μM) and corticosterone (30 μM), to block neuronal and extraneuronal cathecolamine uptake. The preparations were electrically stimulated (10 Hz, 1 msec, 40-80 mA, 500 msec duration) at 5 minutes intervals.
as §3, §4, §5

[4] = Fitton and Benfield, Drugs 1990; cited from earlier work
dopaminergic receptors = settings: Fitton and Benfield, Drugs 1990; cited from earlier work

D1 receptor, sequence (P18901 whole entry): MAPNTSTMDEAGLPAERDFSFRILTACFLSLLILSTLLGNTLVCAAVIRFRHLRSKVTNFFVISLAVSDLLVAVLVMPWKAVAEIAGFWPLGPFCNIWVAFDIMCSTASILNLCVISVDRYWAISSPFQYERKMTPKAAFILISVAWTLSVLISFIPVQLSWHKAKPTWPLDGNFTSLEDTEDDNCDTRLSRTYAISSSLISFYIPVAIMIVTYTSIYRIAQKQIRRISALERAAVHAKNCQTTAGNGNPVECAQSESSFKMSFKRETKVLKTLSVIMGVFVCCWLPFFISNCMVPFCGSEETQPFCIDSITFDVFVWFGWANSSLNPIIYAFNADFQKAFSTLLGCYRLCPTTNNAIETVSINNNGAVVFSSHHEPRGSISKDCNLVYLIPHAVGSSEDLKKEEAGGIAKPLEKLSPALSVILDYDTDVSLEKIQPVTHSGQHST

| SMILES | Ki (D1 receptor) | Ki (D2 receptor) | D1 -like (RSA) potency ratio (EC50 of Ref. A/EC50 of tested compound) [1] | MBP reduction, mean ± S.E. [2] | D2 -like (REA) potency ratio (EC50 of Ref. A/EC50 of tested compound) [3] | absorption when administered by oral route [4] | agonist activity at dopaminergic receptors compared with dopamine (dopaminergic receptors) |
| --- | --- | --- | --- | --- | --- | --- | --- |
| CCCN(CCCCCCNCCc1ccccc1OC)[C@H]1CCc2c(ccc(O)c2O)C1.Cl.Cl [Ref. A, (S)-N-propyl-N-[6-[2-(2-methoxyphenyl)ethylamino]hexyl]-5,6-dihydroxy-1,2,3,4-tetrahydro-2-naphthylamine dihydrochloride, reference compound] | 158 nM | 0.8 nM | 1 | -25 ± 1.1 mmHg |  |  |  |
| Br.Br.CCCN(CCCCCCNCCc1ccc(S(C)(=O)=O)cc1)[C@H]1CCc2c(ccc(O)c2O)C1 [Compound 22, (S)-N-propyl-N-[6-[2-(4-methylsulphonylphenyl)ethylamino]hexyl]-5,6-dihydroxy-1,2,3,4-tetrahydro-2-naphthylamine dihydrobromide] |  |  | 14 | -61.7 ± 5.7 mmHg | 3 |  |  |
| Br.Br.CCCN(CCCCCCN1CCc2cc(O)c(O)cc2C1)[C@H]1CCc2c(ccc(O)c2O)C1 [Compound 10, (S)-N-propyl-N-[6-(6,7-dihydroxy-1,2,3,4-tetrahydroisoquinolin-2-yl)hexyl]-5,6-dihydroxy-1,2,3,4-tetrahydro-2-naphthylamine dihydrobromide] | 117 nM | 0.6 nM | 1.4 |  | 2 |  |  |
| Oc1ccc(CCNCCCCCCNCCc2ccccc2)cc1O [Dopexamine, dopexamine] |  |  |  |  |  | not absorbed when administered by oral route | less active than dopamine |
| NCCc1ccc(O)c(O)c1 [Dopamine] |  |  |  |  |  | not absorbed when administered by oral route |  |
| CCCN(CCCCCCNCCOc1ccc(S(C)(=O)=O)cc1)[C@H]1CCc2c(ccc(O)c2O)C1.Cl.Cl [Compound 6, (S)-N-propyl-N-[6-[2-(4-methylsulphonylphenoxy)ethylamino]hexyl]-5,6-dihydroxy-1,2,3,4-tetrahydro-2-naphthylamine dihydrochloride] | 81 nM | 1.3 nM | 10 |  | 3 |  |  |
| Br.CCCN(CCCCCCNC(=O)Cc1ccc(O)c(O)c1)[C@H]1CCc2c(ccc(O)c2O)C1 [Compound 34, (S)-N-propyl-N-[6-[(3,4-dihydroxyphenyl)acetylamino]hexyl]-5,6-dihydroxy-1,2,3,4-tetrahydro-2-naphthylamine hydrobromide] | 356 nM | 2.1 nM | 2.5 |  | 5 |  |  |
| CCCN(CCCCCCOCCc1ccc(O)c(O)c1)[C@H]1CCc2c(ccc(O)c2O)C1.Cl [Compound 25, (S)-N-propyl-N-[6-[2-(3,4-dihydroxyphenyl)ethoxy]hexyl]-5,6-dihydroxy-1,2,3,4-tetrahydro-2-naphthylamine hydrochloride] | 130 nM | 0.6 nM | 1.7 |  | 1.3 |  |  |
| Br.Br.CCCN(CCCCCCNCCCc1ccc(O)cc1)[C@H]1CCc2c(ccc(O)c2O)C1 [Compound 9, (S)-N-propyl-N-[6-[3-(4-hydroxyphenyl)propylamino]hexyl]-5,6-dihydroxy-1,2,3,4-tetrahydro-2-naphthylamine dihydrobromide] | 22 nM | 0.15 nM | 10 |  | 5 |  |  |
